In patent US8685970B2, “Quinolines and related analogs as sirtuin modulators” (GlaxoSmithKline, LLC, priority 2008, dated 2014):

Target: T1, SIRT1 (Homo sapiens, UniProt Q96EB6)
T1 sequence (Q96EB6 1-747): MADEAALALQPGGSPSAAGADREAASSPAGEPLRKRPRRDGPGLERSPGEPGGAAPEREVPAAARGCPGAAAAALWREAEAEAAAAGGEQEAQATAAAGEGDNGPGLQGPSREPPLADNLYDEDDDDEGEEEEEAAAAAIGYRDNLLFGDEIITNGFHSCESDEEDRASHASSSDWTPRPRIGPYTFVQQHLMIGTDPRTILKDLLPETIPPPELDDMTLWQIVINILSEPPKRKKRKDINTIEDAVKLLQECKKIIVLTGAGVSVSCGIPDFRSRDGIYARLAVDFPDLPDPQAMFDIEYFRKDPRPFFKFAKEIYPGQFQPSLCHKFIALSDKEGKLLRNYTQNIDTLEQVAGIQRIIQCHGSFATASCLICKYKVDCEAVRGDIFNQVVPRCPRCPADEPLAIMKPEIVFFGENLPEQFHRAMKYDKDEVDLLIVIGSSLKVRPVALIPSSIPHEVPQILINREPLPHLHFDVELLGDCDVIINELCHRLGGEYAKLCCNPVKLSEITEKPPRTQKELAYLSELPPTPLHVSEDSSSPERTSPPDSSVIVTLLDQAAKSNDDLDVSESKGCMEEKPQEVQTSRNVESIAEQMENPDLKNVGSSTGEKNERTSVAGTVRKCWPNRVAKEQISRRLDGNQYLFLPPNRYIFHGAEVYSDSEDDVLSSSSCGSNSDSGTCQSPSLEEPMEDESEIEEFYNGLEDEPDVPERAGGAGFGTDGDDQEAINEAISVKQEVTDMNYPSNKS
Assay: Mass spectrometry based SIRT1 deacetylation assay (activation)
Assay type: biochemical
Conditions: 10 nM SIRT1, 0.5 μM peptide substrate, 120 μM βNAD+, 25 min at 25° C.
Excerpt: A mass spectrometry based assay was used to identify modulators of SIRT1 activity. The mass spectrometry based assay utilizes a peptide having 20 amino acid residues as follows: Ac-EE-K (biotin)-GQSTSSHSK (Ac)N1eSTEG-K(5TMR)-EE-NH2 (SEQ ID NO: 1) wherein K(Ac) is an acetylated lysine residue and Nle is a norleucine. The peptide is labeled with the fluorophore 5TMR (excitation 540 nm/emission 580 nm) at the C-terminus. The sequence of the peptide substrate is based on p53 with several modifications. In addition, the methionine residue naturally present in the sequence was replaced with the norleucine because the methionine may be susceptible to oxidation during synthesis and purification.
The mass spectrometry assay is conducted as follows: 0.5 μM peptide substrate and 120 μM βNAD^+ is incubated with 10 nM SIRT1 for 25 minutes at 25° C. in a reaction buffer (50 mM Tris-acetate pH 8, 137 mM NaCl, 2.7 mM KCl, 1 mM MgCl2, 5 mM DTT, 0.05% BSA). Test compounds may be added to the reaction as described above. The SirT1 gene is cloned into a T7-promoter containing vector and transformed into BL21(DE3). After the 25 minute incubation with SIRT1, 10 μL of 10% formic acid is added to stop the reaction. Reactions are sealed and frozen for later mass spec analysis. Determination of the mass of the substrate peptide allows for precise determination of the degree of acetylation (i.e. starting material) as compared to deacetylated peptide (product).
A control for inhibition of sirtuin activity is conducted by adding 1 μL of 500 mM nicotinamide as a negative control at the start of the reaction (e.g., permits determination of maximum sirtuin inhibition). A control for activation of sirtuin activity is conducted using 10 nM of sirtuin protein, with 1 μL of DMSO in place of compound, to determine the amount of deacetylation of the substrate at a given timepoint within the linear range of the assay. This timepoint is the same as that used for test compounds and, within the linear range, the endpoint represents a change in velocity.
For the above assay, SIRT1 protein was expressed and purified as follows. The SirT1 gene was cloned into a T7-promoter containing vector and transformed into BL21(DE3). The protein was expressed by induction with 1 mM IPTG as an N-terminal His-tag fusion protein at 18° C. overnight and harvested at 30,000×g. Cells were lysed with lysozyme in lysis buffer (50 mM Tris-HCl, 2 mM Tris[2-carboxyethyl]phosphine (TCEP), 10 μM ZnCl2, 200 mM NaCl) and further treated with sonication for 10 min for complete lysis. The protein was purified over a Ni-NTA column (Amersham) and fractions containing pure protein were pooled, concentrated and run over a sizing column (Sephadex S200 26/60 global). The peak containing soluble protein was collected and run on an Ion-exchange column (MonoQ). Gradient elution (200 mM-500 mM NaCl) yielded pure protein. This protein was concentrated and dialyzed against dialysis buffer (20 mM Tris-HCl, 2 mM TCEP) overnight. The protein was aliquoted and frozen at −80° C. until further use.
Sirtuin modulating compounds that activated SIRT1 were identified using the assay described above and are shown below in Table 1. The EC1.5 values represent the concentration of test compounds that result in 150% activation of SIRT1. The EC1.5 values for the activating compounds are represented by A (EC1.5<1.0 uM), B (EC1.5 1-25 uM), C (EC1.5>25 uM). The percent maximum fold activation is represented by A (Fold activation >200%) or B (Fold Activation <200%). “NT” indicates the compound was not tested in a particular assay.

| SMILES | % Fold Act. (percent maximum fold activation) | EC1.5 (concentration of test compound that results in 150% activation of SIRT1) |
| --- | --- | --- |
| CN1CCOc2cc(-c3ccc4cccc(NC(=O)c5cscn5)c4n3)ccc21 [Compound 202] | A (Fold activation >200%) | A (EC1.5<1.0 uM) |
| O=C(Nc1nccs1)c1cccc2ccc(-c3cccc(OC4CCNCC4)c3)nc12 [Compound 131] | A (Fold activation >200%) | A (EC1.5<1.0 uM) |
| Cc1csc(NC(=O)c2cccc3cnc(-c4cccc(C(F)(F)F)c4)nc23)n1 [Compound 281] | A (Fold activation >200%) | B (EC1.5 1-25 uM) |
| O=C(Nc1ccc(F)cn1)c1cccc2ccc(-c3cccc(N4CCOCC4)c3)nc12 [Compound 277] | A (Fold activation >200%) | A (EC1.5<1.0 uM) |
| O=C(Nc1cccnc1)c1cccc2ncc(-c3ccccc3)nc12 [Compound 117] | B (Fold Activation <200%) | B (EC1.5 1-25 uM) |
| Cc1nnc(NC(=O)c2cccc3ccc(-c4cccc(C(F)(F)F)c4)nc23)s1 [Compound 275] | B (Fold Activation <200%) | A (EC1.5<1.0 uM) |
| O=C(Nc1ccc(Cl)cn1)c1cccc2ccc(-c3cccnc3)nc12 [Compound 266] | – | C (EC1.5>25 uM) |
| O=C(Nc1cccc2ccc(-c3cccc(CN4CCCC4)c3)nc12)c1cscn1 [Compound 119] | A (Fold activation >200%) | A (EC1.5<1.0 uM) |
| O=C(Nc1ccccc1)c1cccc2ccc(-c3cccc(C(F)(F)F)c3)nc12 [Compound 10] | A (Fold activation >200%) | B (EC1.5 1-25 uM) |
| O=C(Nc1ccccn1)c1cccc2ccc(-c3ccccc3C(F)(F)F)nc12 [Compound 85] | B (Fold Activation <200%) | B (EC1.5 1-25 uM) |
| O=C(O)c1ccc(NC(=O)c2cccc3ccc(-c4cccc(C(F)(F)F)c4)nc23)o1 [Compound 90] | B (Fold Activation <200%) | B (EC1.5 1-25 uM) |
| O=C(Nc1nccs1)c1cccc2ccc(-c3ccc(C(F)(F)F)cc3)nc12 [Compound 96] | – | C (EC1.5>25 uM) |
| O=C(Nc1ccccc1)c1cccc2ccc(-c3ccccc3)nc12 [Compound 9] | B (Fold Activation <200%) | C (EC1.5>25 uM) |
| O=C(Nc1nccs1)c1cccc2cnc(-c3cccc(C(F)(F)F)c3)nc12 [Compound 270] | – | C (EC1.5>25 uM) |
| O=C(Nc1nc(-c2ccccc2)cs1)c1cccc2ccc(-c3cccc(C(F)(F)F)c3)nc12 [Compound 54] | – | C (EC1.5>25 uM) |
| O=C(Nc1ccccn1)c1cccc2ccc(-c3cccc(C(F)(F)F)c3)nc12 [Compound 30] | A (Fold activation >200%) | A (EC1.5<1.0 uM) |

| SMILES | % Fold Act. (percent maximum fold activation) | EC1.5 (concentration of test compound that results in 150% activation of SIRT1) |
| --- | --- | --- |
| O=C(Nc1ccccn1)c1cccc2ncc(-c3cccc(C(F)(F)F)c3)nc12 [Compound 129] | B (Fold Activation <200%) | A (EC1.5<1.0 uM) |
| O=C(Nc1ncnc2ccc(-c3cccc(C(F)(F)F)c3)nc12)c1ccc(CN2CCCC2)cc1 [Compound 312] | A (Fold activation >200%) | B (EC1.5 1-25 uM) |
| O=C(Nc1ccnc(N2CCOCC2)c1)c1cccc2ccc(-c3cccc(C(F)(F)F)c3)nc12 [Compound 321] | A (Fold activation >200%) | A (EC1.5<1.0 uM) |
| c1cncc(CNc2cccc3ccc(-c4cccc(N5CCCC5)c4)nc23)c1 [Compound 173] | – | C (EC1.5>25 uM) |
| O=C(NC1CCOC1=O)c1cccc2ccc(-c3cccc(C(F)(F)F)c3)nc12 (stereo not drawn) [Compound 38] | A (Fold activation >200%) | B (EC1.5 1-25 uM) |
| O=C(Nc1cccc2ccc(-c3cccc(C(F)(F)F)c3)nc12)c1cscn1 [Compound 5] | A (Fold activation >200%) | A (EC1.5<1.0 uM) |
| O=C(Nc1cccc(N2CCCC2)n1)c1cccc2ccc(-c3cccc(C(F)(F)F)c3)nc12 [Compound 320] | A (Fold activation >200%) | A (EC1.5<1.0 uM) |
| c1cncc(CNc2cccc3ccc(-c4ccc5c(c4)OCO5)nc23)c1 [Compound 164] | – | C (EC1.5>25 uM) |
| Cc1cncc(-c2ccc3cccc(NC(=O)c4cscn4)c3n2)c1 [Compound 214] | A (Fold activation >200%) | A (EC1.5<1.0 uM) |
| O=C(Nc1ccc(F)cn1)c1cccc2ccc(-c3cccnc3)nc12 [Compound 265] | – | C (EC1.5>25 uM) |
| CCOC(=O)c1csc(NC(=O)c2cccc3ccc(-c4cccc(C(F)(F)F)c4)nc23)n1 [Compound 91] | A (Fold activation >200%) | A (EC1.5<1.0 uM) |
| Cc1cnc(NC(=O)c2cccc3ccc(-c4cccc(C(F)(F)F)c4)nc23)s1 [Compound 42] | B (Fold Activation <200%) | A (EC1.5<1.0 uM) |
| Cc1ccc(-c2ccc3cccc(NC(=O)c4cscn4)c3n2)cc1 [Compound 212] | B (Fold Activation <200%) | B (EC1.5 1-25 uM) |
| O=C(Nc1cccc2ccc(-c3cccnc3)nc12)c1cnccn1 [Compound 142] | B (Fold Activation <200%) | A (EC1.5<1.0 uM) |
| Cc1cc(NC(=O)c2cccc3ccc(-c4cccnc4)nc23)sn1 [Compound 236] | – | C (EC1.5>25 uM) |
